What all share (type): cell-based
Series [1] relates to promastigotes of Leishmania amazonensis strain (MHOM/BR/77/LTB0016). The series is described as follows: alamarBlue activity against promastigotes of L. amazonensis. The following applies: for IC50: Leishmania amazonensis, 72 h of incubation, mean with standard deviation; for Promastigotes L. amazonensis SI: selectivity index CC50/IC50. The method, then: (§1) For the anti-leishmanicidal experiments, promastigotes and amastigotes of Leishmania amazonensis strain (MHOM/BR/77/LTB0016) and promastigotes of Leishmania donovani strain (MHOM/IN/90/GE1F8R) were used, and they were maintained in RPMI 1640 medium (Gibco, Waltham, MA, USA) at 26 °C. For the trypanocidal experiments, epimastigotes of Trypanosoma cruzi (Y strain) were used, and they were maintained in liver infusion tryptose (LIT) medium supplemented with 10% of fetal bovine serum (FBS) at 26 °C. Murine macrophages J774A.1 (ATCC #TIB-67), maintained in DMEM medium at 37 °C with 5% CO2, were used for the cytotoxic activity assays.
(§2) For the activity against extracellular parasites of kinetoplastid, Leishmania and Trypanosoma parasites, in a 96-well plate, serial dilutions of the compounds were added with dilutions of 10^5 parasites per well and a 10% of alamarBlue Cell Viability Reagent® (Thermo Fisher Scientific, Waltham, MA, USA). After 72 h of incubation at 26 °C, the fluorescence of each well was measured in the EnSpire Multimode Plate Reader® (PerkinElmer, Thermo Fisher Scientific, Madrid, Spain). The inhibitory concentration 50 (IC50) was calculated by nonlinear regression analysis.
Background: The colour change of resazurin is a common sign of viable cells or microbes.

The subject of series [2] is promastigotes of Leishmania donovani strain (MHOM/IN/90/GE1F8R). Put plainly: alamarBlue activity against promastigotes of L. donovani. The following applies: for IC50: Leishmania donovani, 72 h of incubation, mean with standard deviation; for Promastigotes L. donovani SI: selectivity index CC50/IC50 (macrophages J744A.1 vs parasite). How it is done: as §1, §2
The subject of series [3] is epimastigotes of Trypanosoma cruzi (Y strain). Put plainly: alamarBlue activity against epimastigotes of T. cruzi. Conditions: for IC50: Trypanosoma cruzi, 72 h of incubation, mean with standard deviation; for Epimastigotes T. cruzi SI: selectivity index CC50/IC50. The method, then:
as §1, §2

Series [4] can be described thus: alamarBlue cytotoxicity on murine macrophages. Conditions: mouse, J774A.1 macrophages; 24 h of incubation; read-out: Macrophages J744A.1 CC50.

The results in this text go back to article PMC8625207, “Antikinetoplastid Activity of Sesquiterpenes Isolated from the Zoanthid Palythoa aff. clavata” (Pharmaceuticals, 2021).

What is called IC50 is the concentration that inhibits the measured activity by half. With `C=C1C(=O)O[C@@H]2[C@H]3C(C)=CC[C@@H](O)[C@]3(C)CC[C@@H]12` [Santamarine (12), santamarine], in series [1], the IC50 is above 101 µM and the “Promastigotes L. amazonensis SI” value is given as below 0.77. For the same compound, in series [2], the IC50 was 12.1 ± 4.67 µM and the “Promastigotes L. donovani SI” value was found to be 6.35. Besides, in series [3], inhibition was half-maximal at 9.74 ± 2.68 µM (IC50) and the “Epimastigotes T. cruzi SI” value came to 7.91.
Usually CC50 stands for the concentration giving 50% cytotoxicity. On to `C=C1C(=O)O[C@@H]2/C=C(\C)[C@H](O)CC/C(C)=C/[C@H](OC(C)=O)[C@@H]12` [Tatridin A acetate (5), tatridin A acetate], for which, in series [1], the IC50 was above 81.6 µM and the “Promastigotes L. amazonensis SI” value is on record as below 0.24. Besides, in series [4], the CC50 at 24 h worked out at 19.3 ± 0.91 µM. Besides, in series [2], the IC50 was above 81.6 µM and the “Promastigotes L. donovani SI” value is below 0.24. In series [3], the IC50 is above 81.6 µM and the “Epimastigotes T. cruzi SI” value is reported as below 0.24.
Turning to `C=C1C(=O)O[C@H]2CC(=C)[C@H]3CCC(=C)[C@@H](O3)[C@@H](O)[C@H]12` [Dehydroxyisobadgerin (9), dehydroxyisobadgerin], in series [1], the IC50 came out at 25.5 ± 3.2 µM and the “Promastigotes L. amazonensis SI” value is 1.96. Besides, the half-maximal cytotoxic concentration (CC50) at 24 h in series [4] came to 50 ± 13.1 µM. Besides, in series [2], half-maximal inhibition (IC50) was put at 34 ± 3.32 µM and the “Promastigotes L. donovani SI” value is listed as 1.47. Also, in series [3], it took 59.8 ± 9.76 µM to reach half-maximal inhibition (IC50) and the “Epimastigotes T. cruzi SI” value amounted to 0.84.
As to `C=C1C[C@@H]2OC(=O)C(=C)[C@H]2[C@H](O)/C=C(\C)CCC1=O` [Tamirin (7), Tamirin], in series [1], 11.7 ± 2.52 µM corresponded to half-maximal inhibition (IC50) and the “Promastigotes L. amazonensis SI” value stood at 1.99. In series [4], the CC50 at 24 h was found to be 23.3 ± 1.27 µM. In series [2], the IC50 was found to be 4.13 ± 1.25 µM and the “Promastigotes L. donovani SI” value was determined as 5.65. In addition, in series [3], the IC50 is above 69 µM and the “Epimastigotes T. cruzi SI” value is on record as below 0.34.
Take `C=C1C(=O)O[C@H]2CC(=C)[C@H]3CC[C@@](C)(O)[C@@H](O3)[C@@H](O)[C@H]12` [Isobadgerin (8), isobadgerin]: in series [1], the IC50 was above 89.2 µM and the “Promastigotes L. amazonensis SI” value is below 1.01. For the same compound, the CC50 at 24 h in series [4] stood at 89.7 ± 3.92 µM. In series [2], the IC50 was above 89.2 µM and the “Promastigotes L. donovani SI” value is below 1.01. Further, in series [3], the IC50 was above 89.2 µM and the “Epimastigotes T. cruzi SI” value is below 1.01.
In the case of `C=C1CC[C@@H](C(C)C)/C=C/[C@@](C)(O)CC[C@H]1O` [Nephthediol (10), (−) nephthediol], in series [1], the IC50 was above 105 µM and the “Promastigotes L. amazonensis SI” value is listed as below 0.22. In addition, in series [4], the CC50 at 24 h came to 23.58 ± 0.21 µM. Besides, in series [2], the IC50 is above 105 µM and the “Promastigotes L. donovani SI” value was below 0.22. In series [3], the IC50 is above 105 µM and the “Epimastigotes T. cruzi SI” value is reported as below 0.22.
Take `C=C1C(=O)O[C@H]2CC(=C)[C@@H](O)CC/C(C)=C/[C@@H](O)[C@H]12` [Tanachin (6), tanachin]: in series [1], the IC50 was above 94.6 µM and the “Promastigotes L. amazonensis SI” value is recorded as below 1.05. Besides, the CC50 at 24 h in series [4] stood at 99.2 ± 4.43 µM. Moreover, in series [2], the IC50 was above 94.6 µM and the “Promastigotes L. donovani SI” value is recorded as below 1.05. In series [3], the IC50 was above 94.6 µM and the “Epimastigotes T. cruzi SI” value was below 1.05.
For the compound `C=C1CC[C@@H](O)[C@]2(C)CC[C@H]3C(=C)C(=O)O[C@@H]3[C@@H]12` [Reynosin (13), reynosin], in series [1], the IC50 was determined as 40.2 ± 8.78 µM and the “Promastigotes L. amazonensis SI” value is 1.94. Moreover, in series [2], the IC50 was above 201 µM and the “Promastigotes L. donovani SI” value is recorded as below 0.39. In series [3], 58.2 ± 13.1 µM corresponded to half-maximal inhibition (IC50) and the “Epimastigotes T. cruzi SI” value is reported as 1.34.
With `C=C1C(=O)O[C@@H]2/C=C(\C)[C@H](O)CC/C(C)=C/[C@H](O)[C@@H]12` [Tatridin A (4), tatridin A], in series [1], the IC50 is above 94.6 µM and the “Promastigotes L. amazonensis SI” value is below 0.34. Further, the CC50 at 24 h in series [4] came to 32.4 ± 6.55 µM. Moreover, in series [2], the IC50 is above 94.6 µM and the “Promastigotes L. donovani SI” value is on record as below 0.34. For the same compound, in series [3], the IC50 was above 94.6 µM and the “Epimastigotes T. cruzi SI” value is reported as below 0.34.
Consider `O=C(Cn1ccnc1[N+](=O)[O-])NCc1ccccc1` [Benznidazole, reference compound], for which, in series [4], the CC50 at 24 h was above 1540 µM.
